Assay results reported in US20060019997A1, “Triazole compounds and their use as metabotropic glutamate receptor antagonists” (AstraZeneca AB, priority 2004, published 2006).

Molecular target: T1, human mGluR5d (Homo sapiens, UniProt P41594)
T1 construct: expressed in transfected cells
Experiment: FLIPR analysis of [Ca2+]i mobilization (Group I receptor antagonist activity)
Format: cell-based
Details: cells expressing human mGluR5d; antagonist block of agonist challenge
Description: The pharmacological properties of the compounds of the invention can be analyzed using standard assays for functional activity. Examples of glutamate receptor assays are well known in the art as described in for example Aramori et al., Neuron 8:757 (1992), Tanabe et al., Neuron 8:169 (1992), Miller et al., J. Neuroscience 15: 6103 (1995), Balazs, et al., J. Neurochemistry 69:151 (1997). The methodology described in these publications is incorporated herein by reference. Conveniently, the compounds of the invention can be studied by means of an assay that measures the mobilization of intracellular calcium, [Ca^2+]i in cells expressing mGluR5. […]
(§1) FLIPR experiments were done using a laser setting of 0.800 W and a 0.4 second CCD camera shutter speed. […] After each addition of the compound, the fluorescence signal was sampled 50 times at 1 second intervals followed by 3 samples at 5 second intervals. Responses were measured as the peak height of the response within the sample period. […]
as §1, with “speed with excitation and emission wavelengths of 488 nm and 562 nm, respectively.” for “speed.”, “addition” for “addition of the compound,”

T1 sequence (P41594 21-942 isoform P41594-3 limits assumed): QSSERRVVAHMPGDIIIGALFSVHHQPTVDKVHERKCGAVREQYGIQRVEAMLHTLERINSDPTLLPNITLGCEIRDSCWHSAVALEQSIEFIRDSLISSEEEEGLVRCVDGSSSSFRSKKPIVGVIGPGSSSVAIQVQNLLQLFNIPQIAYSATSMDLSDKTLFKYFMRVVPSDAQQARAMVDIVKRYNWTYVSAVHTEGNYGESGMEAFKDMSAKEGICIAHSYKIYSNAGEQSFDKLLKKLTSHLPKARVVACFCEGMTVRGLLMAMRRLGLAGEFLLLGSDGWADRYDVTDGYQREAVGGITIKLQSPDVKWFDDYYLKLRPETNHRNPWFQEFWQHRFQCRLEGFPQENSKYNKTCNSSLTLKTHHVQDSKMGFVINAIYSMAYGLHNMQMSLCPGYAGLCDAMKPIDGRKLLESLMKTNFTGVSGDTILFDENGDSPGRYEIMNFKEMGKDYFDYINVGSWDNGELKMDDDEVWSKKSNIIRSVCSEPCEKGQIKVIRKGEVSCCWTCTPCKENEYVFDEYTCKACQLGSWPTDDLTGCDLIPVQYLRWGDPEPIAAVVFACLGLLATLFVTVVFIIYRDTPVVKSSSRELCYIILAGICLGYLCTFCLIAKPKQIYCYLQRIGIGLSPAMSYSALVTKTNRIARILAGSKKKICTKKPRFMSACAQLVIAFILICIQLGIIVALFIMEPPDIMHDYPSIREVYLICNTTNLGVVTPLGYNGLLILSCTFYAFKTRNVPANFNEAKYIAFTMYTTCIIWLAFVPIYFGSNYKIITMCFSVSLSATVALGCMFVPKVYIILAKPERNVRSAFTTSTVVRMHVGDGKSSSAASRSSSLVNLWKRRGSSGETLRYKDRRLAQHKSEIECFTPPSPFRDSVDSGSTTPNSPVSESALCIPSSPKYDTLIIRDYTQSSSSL

| IC50 | SMILES |
| --- | --- |
| 0.265 µM | Clc1cccc(-n2cc(CSc3nnc(-c4ccncc4)n3C3CC3)nn2)c1 [4-{5-[1-(3-Chloro-phenyl)-1H-[1,2,3]triazol-4-ylmethylsulfanyl]-4-cyclopropyl-4H-[1,2,4]triazol-3-yl}-pyridine] |
| 0.027 µM | CC(Oc1nnc(-c2ccncc2)n1C)c1cnn(-c2cccc(Cl)c2)n1 (centres unmarked) [4-(5-{1-[2-(3-chlorophenyl)-2H-1,2,3-triazol-4-yl]ethoxy}-4-methyl-4H-1,2,4-triazol-3-yl)pyridine] |
